Laboratory results: ChEMBL document CHEMBL6127131, “Design, Synthesis, and Biological Evaluation of New Selective PDE4 Inhibitors for Topical Treatment of Psoriasis” (J Med Chem, 2024)

Assays:
[1] = molecular target: T1, 3',5'-cyclic-AMP phosphodiesterase 4D (Homo sapiens, UniProt Q08499); assay: Inhibition of recombinant full-length PDE4D2 (unknown origin) at 1 uM using FAM-cAMP as substrate preincubated for 15 mins followed by substrate addition and measured after 30 mins by plate reader assay relative to control; conditions: time 45.0 min
[2] = test system: RAW264.7; assay: Anti-inflammatory activity against LPS induced mouse RAW264.7 cells assessed as reduction in TNFalpha secretion at 10 uM incubated for 24 hrs by ELISA; assay type: functional
[3] = molecular target: T1, 3',5'-cyclic-AMP phosphodiesterase 4D; assay: Inhibition of recombinant full-length PDE4D2 (unknown origin) using FAM-cAMP as substrate preincubated for 15 mins followed by substrate addition and measured after 30 mins by plate reader assay
[4] = test system: RAW264.7; assay: Anti-inflammatory activity against LPS induced mouse RAW264.7 cells assessed as reduction in TNFalpha secretion incubated for 24 hrs by ELISA; assay type: functional, cell-based; conditions: RAW264.7, 24 h
[5] = Cytotoxicity against human HaCaT cells incubated for 24 hrs by CCK8 assay; assay type: toxicity, cell-based
[6] = Cytotoxicity against mouse RAW264.7 cells incubated for 24 hrs by CCK8 assay; assay type: toxicity, cell-based
[7] = test system: HaCaT; assay: Anti-inflammatory activity against M5 induced human HaCaT cells assessed as reduction in TNFalpha secretion incubated for 24 hrs by ELISA; assay type: functional, cell-based
[8] = test system: RAW264.7; assay: Anti-inflammatory activity against LPS induced mouse RAW264.7 cells assessed as reduction in IL-6 secretion incubated for 24 hrs by ELISA; assay type: functional, cell-based; conditions: RAW264.7, 24 h

T1 sequence (Q08499 whole entry): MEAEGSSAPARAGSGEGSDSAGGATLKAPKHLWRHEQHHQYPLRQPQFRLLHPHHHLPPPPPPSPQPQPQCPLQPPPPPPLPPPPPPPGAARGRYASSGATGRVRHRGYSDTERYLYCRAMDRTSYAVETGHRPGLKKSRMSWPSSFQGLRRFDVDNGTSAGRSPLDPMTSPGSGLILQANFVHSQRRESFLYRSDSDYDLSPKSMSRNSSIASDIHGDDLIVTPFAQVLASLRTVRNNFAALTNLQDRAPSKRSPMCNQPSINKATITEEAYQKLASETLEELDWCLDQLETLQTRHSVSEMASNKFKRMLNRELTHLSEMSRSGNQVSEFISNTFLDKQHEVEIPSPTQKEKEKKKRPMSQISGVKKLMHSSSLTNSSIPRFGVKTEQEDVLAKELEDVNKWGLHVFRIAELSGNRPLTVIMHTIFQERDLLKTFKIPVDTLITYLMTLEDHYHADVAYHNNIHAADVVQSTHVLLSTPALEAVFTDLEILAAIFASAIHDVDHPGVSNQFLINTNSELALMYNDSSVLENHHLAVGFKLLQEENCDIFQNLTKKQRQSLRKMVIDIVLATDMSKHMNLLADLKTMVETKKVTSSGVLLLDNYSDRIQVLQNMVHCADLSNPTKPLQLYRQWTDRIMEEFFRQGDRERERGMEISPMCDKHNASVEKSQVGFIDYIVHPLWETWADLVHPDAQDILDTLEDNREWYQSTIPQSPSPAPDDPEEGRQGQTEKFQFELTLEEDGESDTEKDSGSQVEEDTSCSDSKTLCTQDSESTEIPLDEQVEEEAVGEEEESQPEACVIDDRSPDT

Row | inhibition [1] [%] | SMILES | inhibition at 10 µM [2] [%] | further results
1 | < 73.1 | O=C(Nc1nccs1)c1cnn2c(-c3ccc(OC(F)F)c(OCC4CC4)c3)ccnc12 |  | 
2 |  | O=C(NCc1ccc(F)cc1F)c1cc2nccc(-c3ccc(OC(F)F)c(OCC4CC4)c3)n2n1 | 13.6 | IC50 [3]: 558 nM
3 | 78.5 | O=C(O)c1csc(-c2ccc(OC(F)F)c(OCC3CC3)c2)n1 | 22.9 | 
4 | < 73.1 | COc1ccc(CNC(=O)c2cnn3c(-c4ccc(OC(F)F)c(OCC5CC5)c4)ccnc23)cn1 |  | 
5 | < 73.1 | CC(C)CNC(=O)c1cnn2c(-c3ccc(OC(F)F)c(OCC4CC4)c3)ccnc12 |  | 
6 |  | O=C(NCc1ccccc1)c1csc(-c2ccc(OC(F)F)c(OCC3CC3)c2)n1 | 29 | IC50 [3]: 25.9 nM
7 |  | O=C(NCc1ccccc1)c1cc2nccc(-c3ccc(OC(F)F)c(OCC4CC4)c3)n2n1 | 19.6 | IC50 [3]: 546 nM
8 | < 73.1 | O=C(NCc1ccc2ccccc2c1)c1cnn2c(-c3ccc(OC(F)F)c(OCC4CC4)c3)ccnc12 |  | 
9 | < 73.1 | O=C(NCc1ccc(F)cc1F)c1cnn2c(-c3ccc(OC(F)F)c(OCC4CC4)c3)ccnc12 |  | 
10 | 75.3 | O=C(Nc1nc2ccccc2s1)c1csc(-c2ccc(OC(F)F)c(OCC3CC3)c2)n1 | 21.7 | 
11 | < 73.1 | CCC(CC)NC(=O)c1cnn2c(-c3ccc(OC(F)F)c(OCC4CC4)c3)ccnc12 |  | 
12 | < 73.1 | O=C(Nc1ccc2ncsc2c1)c1cnn2c(-c3ccc(OC(F)F)c(OCC4CC4)c3)ccnc12 |  | 
13 | < 73.1 | CC(C)(C)CNC(=O)c1cnn2c(-c3ccc(OC(F)F)c(OCC4CC4)c3)ccnc12 |  | 
14 | < 73.1 | O=C(NCc1cccnc1)c1cnn2c(-c3ccc(OC(F)F)c(OCC4CC4)c3)ccnc12 |  | 
15 | 38.3 | O=C(NCc1ccc2ccccc2c1)c1cc2nccc(-c3ccc(OC(F)F)c(OCC4CC4)c3)n2n1 | 12.4 | 
16 |  | O=C(NCc1cccc(F)c1F)c1csc(-c2ccc(OC(F)F)c(OCC3CC3)c2)n1 | 24.8 | IC50 [3]: 25 nM
17 | 38.4 | O=C(NCc1c(F)cc(F)cc1F)c1cc2nccc(-c3ccc(OC(F)F)c(OCC4CC4)c3)n2n1 | 23.3 | 
18 | 64.8 | O=C(Nc1nccs1)c1csc(-c2ccc(OC(F)F)c(OCC3CC3)c2)n1 | 14.6 | 
19 | 78 | O=C(NCc1ccc2ccccc2c1)c1csc(-c2ccc(OC(F)F)c(OCC3CC3)c2)n1 | 14 | 
20 | < 73.1 | O=C(NCc1cc(F)ccc1F)c1cnn2c(-c3ccc(OC(F)F)c(OCC4CC4)c3)ccnc12 |  | 
21 | 89.2 | O=C(Nc1ccccc1)c1cc2nccc(-c3ccc(OC(F)F)c(OCC4CC4)c3)n2n1 | 16.5 | 
22 | 46.7 | Cn1cc(NC(=O)c2cc3nccc(-c4ccc(OC(F)F)c(OCC5CC5)c4)n3n2)cn1 | 15.4 | 
23 | 64.6 | O=C(NCc1cccc(F)c1F)c1cc2nccc(-c3ccc(OC(F)F)c(OCC4CC4)c3)n2n1 | 13.7 | 

Row | inhibition [1] [%] | SMILES | inhibition at 10 µM [2] [%] | further results
24 | < 73.1 | Cn1cc(NC(=O)c2cnn3c(-c4ccc(OC(F)F)c(OCC5CC5)c4)ccnc23)cn1 |  | 
25 | 62.7 | O=C(NCC1CCOCC1)c1cc2nccc(-c3ccc(OC(F)F)c(OCC4CC4)c3)n2n1 | 38.6 | 
26 | 49.3 | O=C(NCc1cccnc1)c1cc2nccc(-c3ccc(OC(F)F)c(OCC4CC4)c3)n2n1 | 6.6 | 
27 | < 73.1 | O=C(Nc1ccc2cc[nH]c2c1)c1cnn2c(-c3ccc(OC(F)F)c(OCC4CC4)c3)ccnc12 |  | 
28 | < 73.1 | O=C(Nc1ccncc1)c1cnn2c(-c3ccc(OC(F)F)c(OCC4CC4)c3)ccnc12 |  | 
29 | < 73.1 | O=C(NCc1c(F)cccc1F)c1cnn2c(-c3ccc(OC(F)F)c(OCC4CC4)c3)ccnc12 |  | 
30 |  | O=C(Nc1ccncc1)c1csc(-c2ccc(OC(F)F)c(OCC3CC3)c2)n1 | 25.6 | IC50 [3]: 77.2 nM
31 | 42.6 | O=C(NCc1cc(F)ccc1F)c1cc2nccc(-c3ccc(OC(F)F)c(OCC4CC4)c3)n2n1 | 16.3 | 
32 | 79.1 | O=C(NCc1ccc(F)cc1F)c1csc(-c2ccc(OC(F)F)c(OCC3CC3)c2)n1 | 17.6 | 
33 | 72.4 | O=C(Nc1ccccc1)c1csc(-c2ccc(OC(F)F)c(OCC3CC3)c2)n1 | 26.5 | 
34 |  | O=C(NCc1c(F)cc(F)cc1F)c1csc(-c2ccc(OC(F)F)c(OCC3CC3)c2)n1 | 34 | IC50 [3]: 25.7 nM
35 | 41.9 | O=C(NCc1c(F)cccc1F)c1cc2nccc(-c3ccc(OC(F)F)c(OCC4CC4)c3)n2n1 | 27.9 | 
36 | 70.7 | O=C(NCc1ncccn1)c1cc2nccc(-c3ccc(OC(F)F)c(OCC4CC4)c3)n2n1 | 25.1 | 
37 |  | O=C(NCc1c(F)cccc1F)c1csc(-c2ccc(OC(F)F)c(OCC3CC3)c2)n1 |  | IC50 [4]: 48.4 µM; CC50 at 24 h [5]: > 50 µM; CC50 at 24 h [6]: > 50 µM; IC50 [7]: 22.6 µM; IC50 [3]: 9.36 nM; IC50 [8]: 57 µM
38 | < 73.1 | O=C(NCc1c(F)cc(F)cc1F)c1cnn2c(-c3ccc(OC(F)F)c(OCC4CC4)c3)ccnc12 |  | 
39 | < 73.1 | O=C(NC1CC1)c1cnn2c(-c3ccc(OC(F)F)c(OCC4CC4)c3)ccnc12 |  | 
40 | < 73.1 | O=C(NC1CCCCC1)c1cnn2c(-c3ccc(OC(F)F)c(OCC4CC4)c3)ccnc12 |  | 
41 | 86.1 | O=C(Nc1nccs1)c1cc2nccc(-c3ccc(OC(F)F)c(OCC4CC4)c3)n2n1 | 25.8 | 
42 | < 73.1 | O=C(NCc1ccccc1)c1cnn2c(-c3ccc(OC(F)F)c(OCC4CC4)c3)ccnc12 |  | 
43 | < 73.1 | O=C(NCC1CCOCC1)c1cnn2c(-c3ccc(OC(F)F)c(OCC4CC4)c3)ccnc12 |  | 
44 | < 73.1 | O=C(Nc1ccccc1)c1cnn2c(-c3ccc(OC(F)F)c(OCC4CC4)c3)ccnc12 |  | 
45 | < 73.1 | O=C(NCc1cccc(F)c1F)c1cnn2c(-c3ccc(OC(F)F)c(OCC4CC4)c3)ccnc12 |  | 
